According to PMC4567403 (Bioorganic & medicinal chemistry letters, 2015):

Legend:
[1] = system: e-cadherin expression in SW620 cells; assay: In-Cell-Western; format: cell-based; conditions: 10 μM compound, average of two assessments
P450 2D6 = P450 2D6 (Homo sapiens, UniProt P10635); assay: P450 inhibition 2D6; format: in vitro ADME; conditions: 2D6, at 30 μM
[2] = Microsomal intrinsic clearance, human; format: in vitro ADME; conditions: human microsomal studies, in words
P450 1A2 = molecular target: T1, P450 1A2 (Homo sapiens, UniProt P05177); assay: P450 inhibition 1A2; format: in vitro ADME; conditions: 1A2, at 30 μM
T1 sequence (P05177 1-516): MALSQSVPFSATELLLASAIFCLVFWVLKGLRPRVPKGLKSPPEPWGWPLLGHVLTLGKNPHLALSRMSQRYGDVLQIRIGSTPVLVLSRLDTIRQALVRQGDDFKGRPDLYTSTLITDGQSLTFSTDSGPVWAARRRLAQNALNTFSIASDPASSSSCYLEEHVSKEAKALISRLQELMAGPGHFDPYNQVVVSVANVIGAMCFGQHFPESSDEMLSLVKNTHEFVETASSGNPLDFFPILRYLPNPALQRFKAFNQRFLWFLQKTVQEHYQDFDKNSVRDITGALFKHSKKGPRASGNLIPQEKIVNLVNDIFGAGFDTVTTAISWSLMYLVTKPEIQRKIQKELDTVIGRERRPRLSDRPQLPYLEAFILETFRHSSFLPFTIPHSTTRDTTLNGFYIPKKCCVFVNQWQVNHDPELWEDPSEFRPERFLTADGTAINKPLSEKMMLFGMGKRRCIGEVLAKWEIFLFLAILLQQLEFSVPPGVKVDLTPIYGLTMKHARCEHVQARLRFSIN

Pharmacokinetics in rat = format: in vivo, male Sprauge- Dawley rats
P450 3A4 = P450 3A4 (Homo sapiens, UniProt P08684); assay: P450 inhibition 3A4; format: in vitro ADME; conditions: 3A4, at 30 μM
[3] = Microsomal intrinsic clearance, mouse; format: in vitro ADME; conditions: in words
SW620 cell lines = conditions: cited from earlier work
P450 2C9 = P450 2C9 (Homo sapiens, UniProt P11712); assay: P450 inhibition 2C9; format: in vitro ADME; conditions: 2C9, at 30 μM
Chain of P450 2C9 (P11712 whole entry): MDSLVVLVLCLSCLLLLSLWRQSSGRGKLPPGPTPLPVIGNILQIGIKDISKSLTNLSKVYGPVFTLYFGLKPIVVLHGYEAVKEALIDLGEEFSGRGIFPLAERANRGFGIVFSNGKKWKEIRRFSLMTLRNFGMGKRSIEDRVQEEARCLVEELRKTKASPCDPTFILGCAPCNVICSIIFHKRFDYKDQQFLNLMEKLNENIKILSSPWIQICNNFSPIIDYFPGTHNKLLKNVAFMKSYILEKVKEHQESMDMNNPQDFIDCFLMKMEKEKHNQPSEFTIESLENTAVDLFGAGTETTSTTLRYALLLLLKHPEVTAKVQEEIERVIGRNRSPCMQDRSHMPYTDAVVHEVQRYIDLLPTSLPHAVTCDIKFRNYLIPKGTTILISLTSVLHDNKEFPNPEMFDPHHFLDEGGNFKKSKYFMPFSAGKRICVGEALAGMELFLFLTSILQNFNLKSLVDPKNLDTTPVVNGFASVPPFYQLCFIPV

Chain of P450 3A4 (P08684 whole entry): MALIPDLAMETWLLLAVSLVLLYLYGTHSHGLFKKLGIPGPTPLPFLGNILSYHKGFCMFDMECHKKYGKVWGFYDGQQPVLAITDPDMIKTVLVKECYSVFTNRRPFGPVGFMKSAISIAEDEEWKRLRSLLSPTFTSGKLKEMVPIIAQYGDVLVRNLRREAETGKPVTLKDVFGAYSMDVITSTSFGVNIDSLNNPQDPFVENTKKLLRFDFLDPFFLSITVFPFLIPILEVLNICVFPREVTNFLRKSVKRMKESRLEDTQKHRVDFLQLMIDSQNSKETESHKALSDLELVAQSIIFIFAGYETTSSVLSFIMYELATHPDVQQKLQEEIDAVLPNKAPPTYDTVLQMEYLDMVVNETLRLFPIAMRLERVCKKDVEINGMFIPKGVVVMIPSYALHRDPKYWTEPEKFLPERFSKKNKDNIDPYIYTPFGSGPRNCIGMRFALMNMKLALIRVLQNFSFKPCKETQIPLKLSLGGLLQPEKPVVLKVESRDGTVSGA
Chain of P450 2D6 (P10635 whole entry): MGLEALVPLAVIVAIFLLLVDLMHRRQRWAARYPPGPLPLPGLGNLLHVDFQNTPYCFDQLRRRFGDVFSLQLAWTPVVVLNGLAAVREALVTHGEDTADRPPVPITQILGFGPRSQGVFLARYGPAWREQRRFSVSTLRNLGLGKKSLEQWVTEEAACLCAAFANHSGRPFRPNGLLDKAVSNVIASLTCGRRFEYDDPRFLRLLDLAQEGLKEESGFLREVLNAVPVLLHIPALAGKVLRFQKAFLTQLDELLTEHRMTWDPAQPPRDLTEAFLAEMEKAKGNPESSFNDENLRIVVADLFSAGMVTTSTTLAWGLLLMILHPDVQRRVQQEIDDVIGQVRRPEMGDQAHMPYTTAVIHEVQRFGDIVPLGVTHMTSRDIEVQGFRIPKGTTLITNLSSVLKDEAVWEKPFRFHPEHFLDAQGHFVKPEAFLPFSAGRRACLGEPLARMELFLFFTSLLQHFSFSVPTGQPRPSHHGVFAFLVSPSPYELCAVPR

CC(CNC(=O)c1cc(-c2cccs2)on1)c1ccncc1 (stereo not drawn) [compound 7]
Fold change of e-cadherin expression [1]: failed to demonstrate significant restoration

O=C(NCCCn1ccnc1)c1noc2ccccc12 [compound 3]
Fold change of e-cadherin expression [1]: failed to demonstrate significant restoration

Cc1c(C(=O)NCCCCc2ccncc2)nn(C)c1-c1ccccc1 [compound 6]
Fold change of e-cadherin expression [1]: failed to demonstrate significant restoration

Cn1nc(C(=O)NCCCCc2ccncc2)cc1-c1ccccc1 [compound 5]
Fold change of e-cadherin expression [1]: failed to demonstrate significant restoration

O=C(NCCCCNC(=O)c1cccnc1O)c1cc(-c2ccccc2)on1 [11r]
inhibition of P450 isozyme (P450 2D6): No inhibition
intrinsic clearance [2]: neglible
inhibition of P450 isozyme (P450 1A2): No inhibition
exposure (Pharmacokinetics in rat; IV and IP dosing): suitable
half life (Pharmacokinetics in rat; IV dose in rat, 1 mg/kg): long
inhibition of P450 isozyme (P450 3A4): No inhibition
mouse clearance [3]: well in excess of hepatic blood flow
EMT phenotype (SW620 cell lines): capable of reversing the EMT phenotype
invasive potential (SW620 cell lines): reducing the invasive potential
inhibition of P450 isozyme (P450 2C9): No inhibition

O=C(NCCCN1CCOCC1)c1n[nH]c2ccccc12 [compound 4]
Fold change of e-cadherin expression [1]: failed to demonstrate significant restoration
